Test [1] has as its system spontaneously hypertensive rats (SHR). The test is described as follows: Long-term (4 weeks) consumption in SHR, tail-cuff blood pressure. It is filed as in vivo, rat. Here is the method: SHR were feed ad libitum with milk fermented by L. lactis NRRL B-50571, L. lactis NRRL B-50572, captopril (40 mg/kg body weight) or purified water for four weeks. […] Additionally, milk fermented by L. lactis strains modified SHR lipid profiles. Milk fermented by L. lactis NRRL B-50571 and B-50572 was able to reduce plasma low-density lipoprotein (LDL) cholesterol by 55.4±3 mg/dL and 66.3±4 mg/dL, respectively. Thus, milk fermented by L. lactis strains may be a coadjuvant in the reduction of hypertension and hyperlipidemia and may be used as a functional food for better cardiovascular health. […] Subsequently, samples were frozen at −20° C. All fermented milk samples were daily unfrozen and homogenized (for 20 minutes before use. Thirty-two male SHR were obtained from Harlan Laboratories, Inc., (Indianapolis, Ill., USA). The rats were randomly housed in pairs per cage at 21±2° C. with 12 h light/dark cycles, 52±6% relative humidity and with ad libitum intake of a standard diet (TEKLAD, Harlan Laboratories, USA) during the experiment. SHR (27-28 weeks old and 355±24 g weight) were divided into four groups of eight rats (n=8): purified water (negative control), captopril (proven hypotensive drug, positive control) (40 mg/kg body weight (BW), milk fermented by L. lactis NRRL B-50571 and milk fermented by L. lactis NRRL 50572. All SHR had free access to each treatment during three weeks as part of the protocol. Half of the animals were sacrificed at the end of that period. The rest of the SHR only received purified water during one more week before being sacrificed. A research animal protocol was followed according to the guidelines established by the institutional (CIAD, A.C.) Ethics Committee. The lowering blood pressure effect of milk fermented by specific L. lactis strains on SHR was monitored through time. […] Systolic (SBP) and diastolic (DBP) blood pressures were measured five times on each conscious animal before treatments and every week during the experiment. […]

For test [2] the test system is unchanged. Kind of test: Single-dose oral administration in SHR, tail cuff blood pressure and heart rate. It is filed as in vivo, rat. As to conditions: single oral dose 40 mg/kg BW. As for the experimental part: However, the relationship between ACEI and the in vivo action had to be tested. Therefore, the antihypertensive and heart rate (HR) lowering effect of milk fermented by specific L. lactis in a murine model was investigated. Spontaneously hypertensive male rats (SHR) (271±14 g) were randomized into […]: oral administration of milk fermented by L. lactis NRRL B-50571 or L. lactis NRRL B-50572 at 35 or 50 mg protein/kg of body weight (BW). Two more groups were fed with different solutions as controls: a saline solution was the negative control, meanwhile captopril (40 mg/kg BW), a proven ACE inhibitor was the positive control. Blood pressure and heart rate were monitored by the tail cuff method before treatments and 2, 4, 6 and 24 h post oral administration. […] Thus, milk fermented by specific L. lactis strains present potential benefits in the prevention and treatment of cardiovascular diseases associated to hypertension in humans. Samples of specific L. lactis fermented milk (prepared as previously described) for the single dose bioassay were obtained by centrifugation at 20,000×g for 10) min at 0° C. […] SHR were weaned for eight weeks and their systolic blood pressure monitored during this period. […] Systolic blood pressure (SBP), diastolic blood pressure (DBP) as well as heart rate (HR) were monitored before administration and 2, 4, 6 and 24 h post-administration. […]

The compound `C[C@H](CS)C(=O)N1CCC[C@H]1C(=O)O` [captopril] showed an SBP reduction in test [1] (fourth week (only water in last week), fermented milk ad libitum, captopril 40 mg/kg BW) of 28.1±1.8 mm Hg. Also, the “effect on SBP” value in test [1] (second and third week) is given as “marked lowering-effect”. Also, the DBP reduction in test [1] (second week, fermented milk ad libitum, captopril 40 mg/kg BW) is recorded as 38.4±8.5 mm Hg; in test [2] (each measurement (2, 4, 6, 24 h)) it was “maximum DBP reduction”. Besides, the “decrease of SBP” value in test [2] (6 h, significantly different from the treatments) is on record as “maximum decrease”.
